# Key:
# [1] = Liver microsomes stability, human; details: for Predicted hepatic CL: Human liver microsomes, with NADPH; for Remaining Percentage (%) 0 min / Remaining Percentage (%) 60 min: Human; for CLint scaled at 2 μM / half-life at 2 μM / microsomal CLint at 2 μM: human, microsomes
# Experimental: (§1) The objective of this study was to estimate in vitro metabolic stability of 1-12 in pooled human and male mouse liver microsomes. The concentrations of parent compounds in reaction systems were evaluated by LC-MS/MS for estimating the stability in pooled human and male mouse liver microsomes. The in vitro intrinsic clearances of test compounds were determined as well.
# (§2) A master solution in the “Incubation Plate” containing phosphate buffer, ultra-pure H2O, MgCl2 solution and liver microsomes was made according to Table 3. The mixture was pre-warmed at 37° C. water bath for 5 minutes.
# (§3) 40 μL of 10 mM NADPH solution was added to each well. The final concentration of NADPH was 1 mM. The negative control samples were prepared by replacing NADPH with 40 μL of ultra-pure H2O. Samples were prepared in duplicate. Negative controls were prepared in singlet.
# (§4) The reaction was started with the addition of 4 μL of 200 μM exemplary test compounds or control compounds to each master solution to get the final concentration of 2 μM. This study was performed in duplicate.
# (§5) Aliquots of 50 μL were taken from the reaction solution at 0, 15, 30, 45 and 60 minutes. The reaction solutions were stopped by the addition of 4 volumes of cold methanol with IS (100 nM alprazolam, 200 nM imipramine, 200 nM labetalol and 2 μM ketoprofen). Samples were centrifuged at 3,220 g for 40 minutes. Aliquot of 90 μL of the supernatant was mixed with 90 μL of ultra-pure H2O and then was used for LC-MS/MS analysis.
# (§6) LC/MS analysis was performed for all samples from this study using a Shimadzu liquid chromatograph separation system equipped with degasser DUG-20A5R; solvent delivery unit LC-30AD; system controller SIL-30AC; column oven CTO-30A; CTC Analytics HTC PAL System; Mass spectrometric analysis was performed using an Triple Quad™ 5500 instrument.
# (§7) All calculations were carried out using Microsoft Excel. Peak area ratios of test compound to internal standard (listed in the below table) were determined from extracted ion chromatograms.
# (§8) All calculations were carried out using Microsoft Excel. Peak areas were determined from extracted ion chromatograms. The slope value, k, was determined by linear regression of the natural logarithm of the remaining percentage of the parent drug vs. incubation time curve.
# (§9) The in vitro half-life (in vitro t½) was determined from the slope value:
# (§10) Conversion of the in vitro t½ (min) into the in vitro intrinsic clearance (in vitro CLint, in μL/min/mg proteins) was done using the following equation (mean of duplicate determinations): […]
# human 5-HT2A receptor = human 5-HT2A receptor (Homo sapiens (Human), UniProt P28223); assay: Radioligand binding assay ([3H]-ketanserin) on human 5-HT2A receptor; details: [3H]-ketanserin competition; read-out: h5-HT2A IC50
# Experimental: • i. The assay buffer was prepared following the table below;
# • ii. 8 doses of reference and exemplary test compounds were prepared starting from 10 mM stock solution as requested by 5-fold serial dilutions with 100%; • iii. (v/v) DMSO was prepared: a. 50 μl/well of 0.5% (v/v) PEI was added to UniFilter-96 GF/B plates. The plates were sealed and incubates at 4° C. for 3 hrs; b. After incubation, the plates were washed 3 times with ice-cold wash buffer (50 mM Tris, pH7.4); • iv. Preparation of assay plates: a. Cell membrane was diluted with assay buffer and 330 μl/well was added to 96 round deep well plates to reach a concentration of 20 μg/well; b. 8 concentrations of reference or exemplary test compounds were prepared and added 110 μl/well to 96 round deep well plates; c. [3H]-ketanserin was diluted with assay buffer to 5 nM (5× final concentration) and added 110 μl/well to 96 round deep well plates. • v. The plate were centrifuged at 1000 rpm for 30 secs and then agitated at 600 rpm, R.T. for 5 min. • vi. The plates were sealed and incubated at 27° C. for 90 min. • vii. The incubation was stopped by vacuum filtration onto GF/B filter plates followed by 4 times washing with ice-cold wash buffer (50 mM Tris, pH7.4). • vii. […] The filter plates were sealed and 40 μl/well of scintillation cocktail added. • x. The plate was read by using a Microbeta2 microplate counter.
# For reference and exemplary test compounds, the results are expressed as % Inhibition, using the normalization equation: N=100−100×(U−C2)/(C1−C2), where U is the unknown value, C1 is the average of high controls, and C2 is the average of low controls. The IC50 was determined by fitting percentage of inhibition as a function of compound concentrations with Hill equation using XLfit.
# [2] = Liver microsomes stability, rat; details: for Predicted hepatic CL: Rat liver microsomes, with NADPH; for Remaining Percentage (%) 0 min / Remaining Percentage (%) 60 min: Rat; for CLint scaled at 2 μM / half-life at 2 μM / microsomal CLint at 2 μM: rat, microsomes
# Experimental: as §1, §2, §3, §4, §5, §6, §7, §8, §9, §10
# [3] = biological target: human 5-HT2A (h5-HT2A) receptor (Homo sapiens (Human), UniProt P28223); assay: FLIPR assay, human 5-HT2A receptor under agonist mode; format: cell-based; details: FLIPR calcium
# Experimental: I. Assessment of the Activated Effect of Exemplary Compounds of Formula I Targeting on Human 5-HT2A (h5-HT2A) Receptor Under Agonist Mode:
# 1. the Cells were cultured in cell culture medium (DMEM containing 10% FBS 1×penicillin-streptomycin 300 μg/ml G418 and 100 μg/ml hygromycin B) at 37° C., 5% (v/v) CO2.
# 2. One day before the assays, the cells were detached using TrypLE™ Express and cells were counted using cell counter.
# 3. 20000 cells/well were seeded in 30 μl/well culture medium to a 384-well cell plate and the cells were incubated overnight at 37° C., 5% (v/v) CO2.
# 4. On the assay day, 2× dye solution was prepared following the manual of the FLIPR® Calcium 6 Assay Kit: i. The dye was diluted with assay buffer(20 mM HEPES in 1×HBSS, PH7.4); ii. Probenecid was added to the final concentration of 5 mM; iii. Vortex vigorously for 1-2 minutes.
# 5. Medium was removed from cell plate by flicking the cell plate on towel papers.
# 6. 10 μl of assay buffer and 10 μl of 2× dye solution was added to each well of the cell plate.
# 7. The cell plate was placed on plate shaker, and the plate was agitated at 600 rpm for 2 minutes. The plate was incubated at 37° C. for 2 hours followed by additional 15-minute incubation at 25° C.
# 8. 3× compound in assay buffer was prepared: a. reference compounds were diluted to required concentration with DMSO. Compounds were added to a 384-well compound plate; b. Serial dilutions were performed; c. 10 mM test compounds were added to the compound plate, 3-fold serial dilutions were performed. d. […] 20 μl/well assay buffer was added to the compound plate; f. The plate was mixed on plate shaker for 2 mins;
# i. The normalized fluorescence reading (RFU) was calculated as shown below, wherein Fmax and Fmin stand for maximum and minimum of calcium signal during defined time window: RFU=Fmax−Fmin
# ii. The percentage activation was calculated by using following equation: […]
# iii. EC50 was calculated by fitting % activation against log of compound concentrations with Hill equation using XLfit.
# [4] = Liver microsomes stability, mouse; details: for Predicted hepatic CL: Mouse liver microsomes, with NADPH; for Remaining Percentage (%) 0 min / Remaining Percentage (%) 60 min: Mouse; for CLint scaled at 2 μM / half-life at 2 μM / microsomal CLint at 2 μM: male, mouse, microsomes
# Experimental: as §1, §2, §3, §4, §5, §6, §7, §8, §9, §10
Structure (SMILES),Predicted hepatic CL [1],Remaining Percentage (%) 0 min ([1]; With NADPH),Remaining Percentage (%) 60 min ([1]; With NADPH),Remaining Percentage (%) 0 min ([1]; Without NADPH),Remaining Percentage (%) 60 min ([1]; Without NADPH),CLint scaled at 2 μM [1],IC50 (human 5-HT2A receptor),Predicted hepatic CL [2],Remaining Percentage (%) 0 min ([2]; With NADPH),Remaining Percentage (%) 60 min ([2]; With NADPH),Remaining Percentage (%) 0 min ([2]; Without NADPH),Remaining Percentage (%) 60 min ([2]; Without NADPH),CLint scaled at 2 μM [2],EC50 [3],Predicted hepatic CL [4],Remaining Percentage (%) 0 min ([4]; With NADPH),Remaining Percentage (%) 60 min ([4]; With NADPH),Remaining Percentage (%) 0 min ([4]; Without NADPH),Remaining Percentage (%) 60 min ([4]; Without NADPH),CLint scaled at 2 μM [4],further results
"[2H]C([2H])N1CCC(c2c[nH]c3cccc(OCc4ccccc4)c23)C1 (single isomer, unassigned) [Compound I-36, 4-(benzyloxy)-3-(1-(methyl-d2)pyrrolidin-3-yl)-1H-indole]",12.51 mL/min/kg,100.00%,46.97%,100.00%,112.84%,31.6 mL/min/kg,> 10 µM,33.57 mL/min/kg,100.00%,23.82%,100.00%,95.23%,85.7 mL/min/kg,> 10 µM,74.95 mL/min/kg,100.00%,4.62%,100.00%,101.31%,448 mL/min/kg,half-life at 2 μM [1]: 55 min; microsomal CLint at 2 μM [1]: 25.2 µL/min/mg; half-life at 2 μM [2]: 29 min; microsomal CLint at 2 μM [2]: 47.8 µL/min/mg; half-life at 2 μM [4]: 13.5 min; microsomal CLint at 2 μM [4]: 102 µL/min/mg
"[2H]C1([2H])CC(c2c[nH]c3cccc(OCc4ccccc4)c23)C([2H])([2H])N1C (single isomer, unassigned) [Compound I-37, 4-(benzyloxy)-3-(1-methylpyrrolidin-3-yl-2,2,5,5-d4)-1H-indole]",9.50 mL/min/kg,100.00%,65.70%,100.00%,99.55%,17.6 mL/min/kg,< 1 µM,26.15 mL/min/kg,100.00%,43.53%,100.00%,101.84%,49.7 mL/min/kg,> 10 µM,55.10 mL/min/kg,100.00%,37.75%,100.00%,93.26%,142 mL/min/kg,half-life at 2 μM [1]: 99 min; microsomal CLint at 2 μM [1]: 14 µL/min/mg; half-life at 2 μM [2]: 50 min; microsomal CLint at 2 μM [2]: 27.7 µL/min/mg; half-life at 2 μM [4]: 42.7 min; microsomal CLint at 2 μM [4]: 32.5 µL/min/mg
"[2H]C([2H])N1C([2H])([2H])CC(c2c[nH]c3cccc(F)c23)C1([2H])[2H] (stereo not drawn) [Compound I-41, 4-fluoro-3-(1-(methyl-d2)pyrrolidin-3-yl-2,2,5,5-d4)-1H-indole]",–,–,–,–,–,–,1 to 10 µM,–,–,–,–,–,–,1 to 10 µM,–,–,–,–,–,–,–
"CN(C)CCc1c[nH]c2cccc(O)c12 [Psilocin, 4-hydroxy-N,N-dimethyltryptamine, reference compound]",8.64 mL/min/kg,100.00%,70.16%,100.00%,87.13%,14.8 mL/min/kg,–,18.53 mL/min/kg,100.00%,62.68%,100.00%,96.98%,27.9 mL/min/kg,–,29.00 mL/min/kg,100.00%,74.57%,100.00%,91.98%,42.8 mL/min/kg,–
